A short description of test [1]: Binding affinity towards 5-HT2 receptor from porcine cortical membranes using [3H]ketanserin.
The target in test [2] is D(1A) dopamine receptor (Sus scrofa, UniProt P50130). Put plainly: Binding affinity towards D1 receptor from porcine striatal membranes using [3H]-SCH- 23390.
Test [3] has as its target T1, D(2) dopamine receptor (Homo sapiens, UniProt P14416). Put plainly: biochemical.
Description: Binding affinity towards human D2 short receptor using [3H]spiperone expressed in CHO cells
The target in test [4] is T1, D(2) dopamine receptor. Put plainly: biochemical. This is another data set of the same source.
Description: Binding affinity towards human D2 long receptor using [3H]spiperone expressed in CHO cells
Test [5] concerns the target T2, D(4) dopamine receptor (Homo sapiens, UniProt P21917).
T2 sequence (P21917 whole entry): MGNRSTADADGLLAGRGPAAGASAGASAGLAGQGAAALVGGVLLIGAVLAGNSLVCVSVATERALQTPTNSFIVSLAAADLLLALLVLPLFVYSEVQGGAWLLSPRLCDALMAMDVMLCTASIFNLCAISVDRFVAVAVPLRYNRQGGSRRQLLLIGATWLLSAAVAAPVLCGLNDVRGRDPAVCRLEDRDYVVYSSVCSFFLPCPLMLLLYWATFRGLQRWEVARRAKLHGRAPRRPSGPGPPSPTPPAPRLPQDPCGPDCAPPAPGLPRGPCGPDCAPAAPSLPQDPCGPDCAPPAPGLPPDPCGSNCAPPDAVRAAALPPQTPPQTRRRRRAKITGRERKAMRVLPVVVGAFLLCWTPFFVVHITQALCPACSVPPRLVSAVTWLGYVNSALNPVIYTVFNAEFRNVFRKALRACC
The experiment in a line: biochemical.
Description: Binding affinity towards human D4.4 receptor using [3H]spiperone expressed in CHO cells

Test [6] deals with D(3) dopamine receptor (Homo sapiens, UniProt P35462). The experiment in a line: biochemical.
D(3) dopamine receptor, sequence (P35462 whole entry): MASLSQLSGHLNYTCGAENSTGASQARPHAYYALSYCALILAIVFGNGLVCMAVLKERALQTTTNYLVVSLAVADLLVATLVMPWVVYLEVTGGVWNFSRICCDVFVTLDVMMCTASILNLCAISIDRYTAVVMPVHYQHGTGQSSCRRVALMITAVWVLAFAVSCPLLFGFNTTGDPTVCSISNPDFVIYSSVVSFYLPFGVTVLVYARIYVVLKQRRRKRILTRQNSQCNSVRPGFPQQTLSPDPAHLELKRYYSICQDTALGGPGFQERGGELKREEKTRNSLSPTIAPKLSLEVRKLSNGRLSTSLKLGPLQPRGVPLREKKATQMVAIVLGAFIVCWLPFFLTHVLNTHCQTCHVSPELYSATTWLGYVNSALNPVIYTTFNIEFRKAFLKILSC
Description: Binding affinity towards human D3 receptor using [3H]spiperone expressed in CHO cells

D(1A) dopamine receptor, sequence (P50130 whole entry): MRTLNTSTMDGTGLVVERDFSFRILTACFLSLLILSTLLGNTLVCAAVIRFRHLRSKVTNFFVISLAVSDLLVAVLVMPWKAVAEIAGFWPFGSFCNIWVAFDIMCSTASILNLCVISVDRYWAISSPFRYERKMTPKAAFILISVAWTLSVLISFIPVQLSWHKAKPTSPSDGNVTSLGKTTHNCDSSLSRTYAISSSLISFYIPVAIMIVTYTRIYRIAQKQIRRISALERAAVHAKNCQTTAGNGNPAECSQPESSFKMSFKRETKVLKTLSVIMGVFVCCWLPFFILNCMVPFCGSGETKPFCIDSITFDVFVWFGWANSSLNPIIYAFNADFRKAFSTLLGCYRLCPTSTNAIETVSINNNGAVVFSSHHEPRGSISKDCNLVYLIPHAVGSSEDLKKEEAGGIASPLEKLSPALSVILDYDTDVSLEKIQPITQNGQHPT
T1 sequence (P14416 whole entry): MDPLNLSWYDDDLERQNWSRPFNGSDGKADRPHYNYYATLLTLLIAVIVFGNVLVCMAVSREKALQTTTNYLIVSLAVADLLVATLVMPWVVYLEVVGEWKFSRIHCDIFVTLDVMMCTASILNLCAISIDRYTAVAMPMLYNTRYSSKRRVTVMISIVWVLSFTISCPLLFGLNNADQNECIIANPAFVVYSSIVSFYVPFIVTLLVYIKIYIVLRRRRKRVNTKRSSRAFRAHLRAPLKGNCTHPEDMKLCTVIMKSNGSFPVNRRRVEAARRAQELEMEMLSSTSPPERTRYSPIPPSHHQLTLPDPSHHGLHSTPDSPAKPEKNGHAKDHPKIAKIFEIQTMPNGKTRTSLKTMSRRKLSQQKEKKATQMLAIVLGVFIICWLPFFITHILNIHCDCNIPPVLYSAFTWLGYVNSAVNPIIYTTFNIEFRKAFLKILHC

For the molecule `O=C(NCCCCN1CCN(c2cccc(Cl)c2Cl)CC1)c1cc2cc(I)ccc2o1`, the Ki (commonly the equilibrium dissociation constant of an inhibitor or competing ligand from its target) in test [1] worked out at 790 nM; in test [2], 3300 nM; in test [3] it was 430 nM; in test [4], 3200 nM; in test [5], 2200 nM.
`COc1ccccc1N1CCN(CCCCNC(=O)c2cc3cc(I)ccc3o2)CC1`: the Ki amounted to 230 nM in test [1]; 420 nM in test [2]; 1.4 nM in test [6]; 27 nM in test [3]; 46 nM in test [5].
`O=C(NCCCCN1CCN(c2cccc(Cl)c2Cl)CC1)c1cc2ccccc2s1` came in with a Ki in test [1] of 3000 nM.
For `COc1ccccc1N1CCN(CCCCNC(=O)c2cc3cc(I)ccc3s2)CC1`, the Ki in test [1] is 250 nM; in test [2], 520 nM; in test [6], 0.86 nM; in test [3], 1 nM; in test [4] it was 48 nM; in test [5], 42 nM.
As to `COc1ccccc1N1CCN(CCCCNC(=O)c2ccc(I)s2)CC1`, the Ki in test [1] stood at 690 nM; in test [2], 600 nM; in test [6], 2.4 nM; in test [3], 35 nM; in test [4], 75 nM; in test [5], 31 nM.
Regarding `O=C(NCCCCN1CCN(c2cccc(Cl)c2Cl)CC1)c1cc2cc(I)ccc2s1`, the Ki was determined as 290 nM in test [1]; 1400 nM in test [2]; 4.5 nM in test [6]; 140 nM in test [3]; 450 nM in test [4]; 550 nM in test [5].
Regarding `O=C(NCCCCN1CCN(c2cccc(Cl)c2Cl)CC1)c1ccc(I)s1`, the Ki came to 210 nM in test [1]; 820 nM in test [2]; 1.4 nM in test [6]; 32 nM in test [3]; 89 nM in test [4]; 130 nM in test [5].
